Tested on: EZH2
Experiment: EZH2 phosphorylation in keratinocytes (immunoblot)
Type: cell-based, human
Conditions: IL-36α- or IL-17A/TNFα-treated keratinocytes
Text: HaCaT cells were maintained in DMEM with 10% FCS and antibiotics. Human primary keratinocytes were freshly isolated from foreskin and maintained in CnT-07S medium with gentamycin (CELLnTEC). Recombinant human IL-36α (aa 6-158) and mouse IL-36α (aa 6-160) were purchased from R&D Systems. Recombinant IL-17A (11340174), TNFα (11343013) and IL-1β (11340013) were ordered from Immunotools. Flagellin (vac-fla) and poly I:C (vac-pic) were purchased from Invivogen. In cell culture experiments, the cytokines were used at the following concentrations, as described previously: IL-36α (100 ng/mL), IL-17A (200 ng/mL), TNFα (10 ng/mL) and IL-1β (100 ng/mL). Flagellin was applied at 10 ng/mL and poly(I:C) was added at a final concentration of 100 ng/mL. […] When indicated, cells were starved for 2 h prior to cytokine treatment, by removing cell culture supplements from the growth medium.
Western blot analysis was performed as described before. […]

Which “inducible phosphorylation of EZH2 at threonine 345 (T345)” value does the source give for Abemaciclib mesylate here?
Its value is “completely abrogated”.
